Test results as given in PMC6179904 (Developmental Cell, 2018).

System: Jurkat T-cells
Format: cell-based, human

SMILES | LCK localization ratio (LR) at the immune synapse
Nc1ncnc2c1c(-c1ccc(Oc3ccccc3)cc1)cn2C1CCCC1 [LCK inhibitor (CAS 213743-31-8)] | 1.05
CCOC(=O)N1CCC(Nc2c(NCCN3CCN(c4cccc(C(F)(F)F)c4)CC3)c(=O)c2=O)CC1 [squarunkin A] | 0.94
